Data published in patent US20250302815A1, “PROTEIN TYROSINE PHOSPHATASE TARGETING LIGANDS” (CALICO LIFE SCIENCES LLC, priority 2021, published 2025).

Legend:
[1] = target: T1, PTPN2 (HiBIT-PTPN2 in 293T.109 cells) (Homo sapiens, UniProt P17706); experiment: HiBiT Degradation 293T.109 PTPN2 (Nano-Glo HiBiT Lytic Assay); assay type: cell-based; conditions: 24.0 hours
T1 construct: expressed in transfected cells; host or cells: 293T.109 (293T WT from ATCC)
T1 sequence (P17706 1-415): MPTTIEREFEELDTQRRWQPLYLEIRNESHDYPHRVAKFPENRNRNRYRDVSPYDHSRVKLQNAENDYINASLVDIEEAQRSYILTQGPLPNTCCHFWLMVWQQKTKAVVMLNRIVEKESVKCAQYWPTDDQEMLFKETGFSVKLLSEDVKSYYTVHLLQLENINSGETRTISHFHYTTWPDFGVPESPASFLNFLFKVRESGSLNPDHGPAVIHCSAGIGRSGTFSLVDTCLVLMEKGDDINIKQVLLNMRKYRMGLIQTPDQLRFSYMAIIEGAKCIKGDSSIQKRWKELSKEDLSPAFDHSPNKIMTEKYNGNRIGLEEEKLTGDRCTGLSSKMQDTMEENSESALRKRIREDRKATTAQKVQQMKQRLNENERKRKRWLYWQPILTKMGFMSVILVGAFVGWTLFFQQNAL
Method in brief: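 293T.109 cells with ectopic N-terminal HiBiT-tagged PTPN2 (5000/well) exposed to compounds for 24 h at 37 °C, 5% CO2; 11-point half-log titration from 10 μM top, duplicates. Remaining HiBiT-PTPN2 read as luminescence with Nano-Glo HiBiT lytic reagent, normalised to untreated cells (0%) and reagent-free wells.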

[2] = target: T2, PTPN2 (B16F10.4 cells) (Mus musculus, UniProt Q06180); experiment: HiBiT Degradation B16F10.4 PTPN2; assay type: cell-based; conditions: 24.0 hours
T2 construct: HiBiT; host or cells: B16F10.4
T2 sequence (Q06180 1-406): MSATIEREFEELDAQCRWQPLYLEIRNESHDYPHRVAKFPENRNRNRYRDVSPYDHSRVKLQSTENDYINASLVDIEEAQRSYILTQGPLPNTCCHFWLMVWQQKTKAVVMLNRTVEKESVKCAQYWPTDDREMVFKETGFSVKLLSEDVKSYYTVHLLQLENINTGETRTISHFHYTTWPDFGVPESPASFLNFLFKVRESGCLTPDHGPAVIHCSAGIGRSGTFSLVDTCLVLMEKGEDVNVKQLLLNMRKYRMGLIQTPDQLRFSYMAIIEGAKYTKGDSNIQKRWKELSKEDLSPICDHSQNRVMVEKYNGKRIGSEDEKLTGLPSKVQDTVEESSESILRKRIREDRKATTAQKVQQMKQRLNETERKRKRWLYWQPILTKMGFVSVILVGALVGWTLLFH

SMILES | DC50 [1] | DC50 [2]
CC1(C)C[C@@H](Nc2cccc(-c3sc(C(=O)O)c(OCC(=O)O)c3Cl)c2)CCN1S(=O)(=O)Cc1ccc(F)c(NC(=O)[C@H]2[C@@H]3CN(C(=O)CNc4cccc5c4CN(C4CCC(=O)NC4=O)C5=O)C[C@@H]32)c1 (stereo partly drawn) [Example 110, 3-(carboxymethoxy)-4-chloro-5-(3-(((4S)-1-((3-((1R,5S,6r)-3-((2-(2,6-dioxopiperidin-3-yl)-1-oxoisoindolin-4-yl)glycyl)-3-azabicyclo[3.1.0]hexane-6-carboxamido)-4-fluorobenzyl)sulfonyl)-2,2-dimethylpiperidin-4-yl)amino)phenyl)thiophene-2-carboxylic acid] | 50 to 200 nM | 200 to 1000 nM
CC1(C)C[C@H](Nc2cccc(-c3sc(C(=O)O)c(OCC(=O)O)c3Cl)c2)CCN1S(=O)(=O)Cc1ccc(F)c(NC(=O)[C@H]2[C@@H]3CN(C(=O)CNc4cccc5c4CN(C4CCC(=O)NC4=O)C5=O)C[C@@H]32)c1 (stereo partly drawn) [Example 111, 3-(carboxymethoxy)-4-chloro-5-(3-(((4R)-1-((3-((1R,5S,6r)-3-((2-(2,6-dioxopiperidin-3-yl)-1-oxoisoindolin-4-yl)glycyl)-3-azabicyclo[3.1.0]hexane-6-carboxamido)-4-fluorobenzyl)sulfonyl)-2,2-dimethylpiperidin-4-yl)amino)phenyl)thiophene-2-carboxylic acid] | 200 to 1000 nM | ≥ 1000 nM
Cn1c(=O)n(C2CCC(=O)NC2=O)c2ccc(N3CCC(C(=O)Nc4cccc(CS(=O)(=O)N5CCC(Nc6cccc(-c7sc(C(=O)O)c(OCC(=O)O)c7Cl)c6)CC5)c4)CC3)cc21 (centres unmarked) [Example 112, 3-(carboxymethoxy)-4-chloro-5-[3-[[1-[[3-[[1-[1-(2,6-dioxo-3-piperidyl)-3-methyl-2-oxo-benzimidazol-5-yl]piperidine-4-carbonyl]amino]phenyl]methylsulfonyl]-4-piperidyl]amino]phenyl]thiophene-2-carboxylic acid] | 50 to 200 nM | 50 to 200 nM
Cn1c(=O)n(C2CCC(=O)NC2=O)c2ccc(N3CC4(CCN(C(=O)Nc5cccc(CS(=O)(=O)N6CCC(Nc7cccc(-c8sc(C(=O)O)c(OCC(=O)O)c8Cl)c7)CC6)c5)CC4)C3)cc21 (centres unmarked) [Example 113, 3-(carboxymethoxy)-4-chloro-5-[3-[[1-[[3-[[2-[1-(2,6-dioxo-3-piperidyl)-3-methyl-2-oxo-benzimidazol-5-yl]-2,7-diazaspiro[3.5]nonane-7-carbonyl]amino]phenyl]methylsulfonyl]-4-piperidyl]amino]phenyl]thiophene-2-carboxylic acid] | 50 to 200 nM | 50 to 200 nM
Cn1c(=O)n(C2CCC(=O)NC2=O)c2ccc(C3CCN(C(=O)Nc4cc(CS(=O)(=O)N5CCC(Nc6cccc(-c7sc(C(=O)O)c(OCC(=O)O)c7Cl)c6)CC5(C)C)ccc4F)CC3)cc21 (centres unmarked) [Example 114, 3-(carboxymethoxy)-4-chloro-5-[3-[[1-[[3-[[4-[1-(2,6-dioxo-3-piperidyl)-3-methyl-2-oxo-benzimidazol-5-yl]piperidine-1-carbonyl]amino]-4-fluoro-phenyl]methylsulfonyl]-2,2-dimethyl-4-piperidyl]amino]phenyl]thiophene-2-carboxylic acid] | 50 to 200 nM | < 50 nM
Cn1c(=O)n(C2CCC(=O)NC2=O)c2ccc(C3CCN(C(=O)Nc4cccc(CS(=O)(=O)N5CCC(Nc6cccc(-c7sc(C(=O)O)c(OCC(=O)O)c7Cl)c6)CC5(C)C)c4F)CC3)cc21 (centres unmarked) [Example 115, 3-(carboxymethoxy)-4-chloro-5-[3-[[1-[[3-[[4-[1-(2,6-dioxo-3-piperidyl)-3-methyl-2-oxo-benzimidazol-5-yl]piperidine-1-carbonyl]amino]-2-fluoro-phenyl]methylsulfonyl]-2,2-dimethyl-4-piperidyl]amino]phenyl]thiophene-2-carboxylic acid] | 50 to 200 nM | 200 to 1000 nM
Cn1c(=O)n(C2CCC(=O)NC2=O)c2ccc(OC3CN(C(=O)Nc4cccc(CS(=O)(=O)N5CC[C@H](Nc6cccc(-c7sc(C(=O)O)c(OCC(=O)O)c7Cl)c6)CC5(C)C)c4)C3)cc21 (some centres unmarked) [Example 116] | 50 to 200 nM | 50 to 200 nM
